Results: ChEMBL document CHEMBL1201862, “PubChem BioAssay data set” (2004)
Calls of active or inactive are those of the source. Positions of bridges follow the written chain, without caps; N, C: chain ends. Non-standard residues stand in square brackets, D forms with d. Residues, ends and D or L forms follow the SMILES beside them. *: point of attachment. X1 = CCC(C)C(N)C1=NC(C(=O)*)CS1; dOrn = NCCC[C@@H](N)C(=O)O

Columns and labels:
[1] = target: Nuclear receptor subfamily 0 group B member 1 (Homo sapiens, UniProt P51843); test: Luminescence-based cell-based high throughput dose response assay for inhibitors of the orphan nuclear receptor subfamily 0, group B, member 1 (DAX1; NR0B1). [Related pubchem assays (depositor defined):AID504766, AID504790]; assay type: functional
[2] = test system: HEK293; test: cells; assay type: functional, cell-based; settings: Homo sapiens
[3] = test system: HEK293; test: cells; settings: Homo sapiens
[4] = test system: HEK293; test: cells; settings: Homo sapiens; remark: listed apart in the source
[5] = target: T1, CAAX prenyl protease 2 (Saccharomyces cerevisiae S288c, UniProt Q03530); assay type: biochemical
T1 sequence (Q03530 whole entry): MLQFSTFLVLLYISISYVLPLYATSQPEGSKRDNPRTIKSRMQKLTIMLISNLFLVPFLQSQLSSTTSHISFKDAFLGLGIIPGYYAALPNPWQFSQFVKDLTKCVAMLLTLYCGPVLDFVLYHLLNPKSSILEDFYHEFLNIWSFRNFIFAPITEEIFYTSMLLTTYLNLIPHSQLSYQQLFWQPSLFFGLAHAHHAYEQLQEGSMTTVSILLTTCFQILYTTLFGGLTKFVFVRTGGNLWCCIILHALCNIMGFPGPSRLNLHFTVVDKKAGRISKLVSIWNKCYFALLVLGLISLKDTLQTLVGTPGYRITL

[6] = viability loss of HMLE_sh_eGFP cells – cell-based, luminescence, counter-screen for HMLE_sh_ECad selective toxicity project, dose response (AID 463074); assay type: functional, Homo sapiens;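 further: HMLE human mammary epithelial cells expressing control shRNA against eGFP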
[7] = Luminescence Cell-Based Dose Retest to Confirm Inhibitors of Cancer Stem Cells. [Related pubchem assays (depositor defined):AID2717, AID2721]; assay type: functional; settings: Homo sapiens
[8] = HEK-293T viability loss, compound-treated – cell-based, uHTS hits, cytotoxicity control for B/T-cell NF-kB inhibitor project, dose response (AID 489019); assay type: functional;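 further: IC50 reflects cytotoxicity as loss of cell viability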
[9] = test system: Jurkat; test: blockers of NF-kB activation in T cells – Jurkat, luciferase reporter, luminescence, B- and T-cell, dose response (AID 489004); assay type: functional, cell-based; settings: Homo sapiens;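 further: NF-kB luciferase reporter Jurkat cells stimulated with PMA plus ionomycin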
[10] = target: T2, Protein RecA (Mycobacterium tuberculosis, UniProt P9WHJ3); test: Fluorescence Cell-Free Homogeneous Dose Retest to Identify Inhibitors of RecA-Intein Splicing Activity. [Related pubchem assays (depositor defined):AID2097, AID2223, AID489010, AID492950]; assay type: functional
T2 sequence (P9WHJ3 whole entry): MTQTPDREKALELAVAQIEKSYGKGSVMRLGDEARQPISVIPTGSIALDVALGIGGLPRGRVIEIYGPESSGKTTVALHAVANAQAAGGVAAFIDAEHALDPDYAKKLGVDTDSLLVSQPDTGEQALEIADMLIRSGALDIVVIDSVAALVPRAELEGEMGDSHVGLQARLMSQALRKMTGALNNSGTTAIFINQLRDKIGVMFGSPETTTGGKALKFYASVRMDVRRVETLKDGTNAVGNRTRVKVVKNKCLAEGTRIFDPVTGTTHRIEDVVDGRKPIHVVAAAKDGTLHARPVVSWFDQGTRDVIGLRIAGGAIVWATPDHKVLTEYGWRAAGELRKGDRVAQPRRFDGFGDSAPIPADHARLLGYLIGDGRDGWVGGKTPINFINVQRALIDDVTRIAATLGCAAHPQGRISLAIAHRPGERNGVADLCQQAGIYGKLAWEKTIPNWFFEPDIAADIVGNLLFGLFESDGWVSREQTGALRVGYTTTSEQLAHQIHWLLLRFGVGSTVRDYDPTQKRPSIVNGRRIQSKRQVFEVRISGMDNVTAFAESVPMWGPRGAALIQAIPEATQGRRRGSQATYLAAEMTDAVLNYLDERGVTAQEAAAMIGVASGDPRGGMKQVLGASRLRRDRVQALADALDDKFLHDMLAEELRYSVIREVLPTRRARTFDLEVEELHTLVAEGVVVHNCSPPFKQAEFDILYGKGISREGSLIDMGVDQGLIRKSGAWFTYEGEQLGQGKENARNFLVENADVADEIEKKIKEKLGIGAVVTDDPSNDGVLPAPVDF

[11] = test system: INS1; test: INS-1E survival protection against cytokine death – cell-based, luminescence, retest, dose response (AID 449756); assay type: functional; settings: Rattus norvegicus;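 further: cell death triggered by IL-1 beta plus TNF-alpha plus IFN-gamma mixture; protective hits raise ATP signal compared with cytokine alone wells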
[12] = target: T3, Apoptotic protease-activating factor 1 (Homo sapiens, UniProt O14727); assay type: functional
T3 sequence (O14727 whole entry): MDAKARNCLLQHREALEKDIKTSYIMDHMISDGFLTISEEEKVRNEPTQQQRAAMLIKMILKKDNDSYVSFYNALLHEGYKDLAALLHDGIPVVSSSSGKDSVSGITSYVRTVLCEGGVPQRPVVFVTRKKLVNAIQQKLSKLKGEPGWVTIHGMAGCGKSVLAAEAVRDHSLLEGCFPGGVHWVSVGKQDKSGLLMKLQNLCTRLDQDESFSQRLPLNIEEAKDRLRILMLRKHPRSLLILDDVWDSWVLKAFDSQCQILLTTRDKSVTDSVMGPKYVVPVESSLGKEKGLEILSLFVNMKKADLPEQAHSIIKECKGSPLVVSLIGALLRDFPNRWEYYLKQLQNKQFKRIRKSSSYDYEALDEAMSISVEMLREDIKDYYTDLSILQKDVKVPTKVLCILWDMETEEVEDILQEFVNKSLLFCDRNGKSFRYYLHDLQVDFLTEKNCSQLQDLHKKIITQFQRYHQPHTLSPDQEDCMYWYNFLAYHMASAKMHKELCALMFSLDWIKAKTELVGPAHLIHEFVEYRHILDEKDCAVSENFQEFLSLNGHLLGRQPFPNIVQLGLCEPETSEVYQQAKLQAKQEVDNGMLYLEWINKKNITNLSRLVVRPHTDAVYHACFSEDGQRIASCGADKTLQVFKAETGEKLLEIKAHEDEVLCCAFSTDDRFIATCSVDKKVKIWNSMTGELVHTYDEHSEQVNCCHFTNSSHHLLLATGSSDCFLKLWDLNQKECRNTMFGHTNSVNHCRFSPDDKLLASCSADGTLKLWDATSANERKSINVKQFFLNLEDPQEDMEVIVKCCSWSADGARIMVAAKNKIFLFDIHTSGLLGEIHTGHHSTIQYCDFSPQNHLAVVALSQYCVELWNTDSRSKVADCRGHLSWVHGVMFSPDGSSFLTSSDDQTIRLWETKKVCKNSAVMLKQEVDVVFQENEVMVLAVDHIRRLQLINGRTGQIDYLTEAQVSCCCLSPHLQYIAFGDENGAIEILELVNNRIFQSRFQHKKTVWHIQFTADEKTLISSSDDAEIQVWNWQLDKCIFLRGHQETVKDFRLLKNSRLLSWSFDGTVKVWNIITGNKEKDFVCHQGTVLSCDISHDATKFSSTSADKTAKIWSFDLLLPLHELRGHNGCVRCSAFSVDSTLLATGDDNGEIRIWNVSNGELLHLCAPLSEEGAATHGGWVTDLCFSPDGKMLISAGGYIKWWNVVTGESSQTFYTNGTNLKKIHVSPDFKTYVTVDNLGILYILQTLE

[13] = target: T4, Microphthalmia-associated transcription factor (Homo sapiens, UniProt O75030); test: reducers of TRPM1 reporter luminescence, concentration series – cell-based, SK-MEL-5, cherry-picked, set 3, MITF inhibitor project, dose response (AID 493073); assay type: functional;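 further: SK-MEL-5 melanoma cells with luciferase driven by the MITF target TRPM1 promoter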
T4 sequence (O75030 whole entry): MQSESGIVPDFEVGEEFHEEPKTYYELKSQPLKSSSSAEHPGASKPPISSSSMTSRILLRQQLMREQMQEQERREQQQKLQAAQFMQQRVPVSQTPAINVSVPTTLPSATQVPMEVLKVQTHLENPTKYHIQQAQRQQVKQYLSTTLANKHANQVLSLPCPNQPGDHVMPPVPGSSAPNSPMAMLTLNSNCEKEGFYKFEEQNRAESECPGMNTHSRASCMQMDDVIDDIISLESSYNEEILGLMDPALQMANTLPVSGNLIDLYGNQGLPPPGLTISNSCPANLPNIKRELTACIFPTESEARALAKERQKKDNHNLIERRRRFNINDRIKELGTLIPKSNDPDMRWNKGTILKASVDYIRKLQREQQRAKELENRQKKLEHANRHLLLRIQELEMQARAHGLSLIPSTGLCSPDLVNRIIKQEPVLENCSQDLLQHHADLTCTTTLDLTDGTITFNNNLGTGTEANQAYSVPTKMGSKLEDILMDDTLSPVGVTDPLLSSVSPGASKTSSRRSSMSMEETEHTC

[14] = target: T5, Replicative DNA helicase DnaB (Mycobacterium tuberculosis, UniProt P9WMR3); test: DnaB intein splicing inhibitors, dose response, biochemical, cell-free fluorescence (AID 449749); assay type: functional
T5 sequence (P9WMR3 whole entry): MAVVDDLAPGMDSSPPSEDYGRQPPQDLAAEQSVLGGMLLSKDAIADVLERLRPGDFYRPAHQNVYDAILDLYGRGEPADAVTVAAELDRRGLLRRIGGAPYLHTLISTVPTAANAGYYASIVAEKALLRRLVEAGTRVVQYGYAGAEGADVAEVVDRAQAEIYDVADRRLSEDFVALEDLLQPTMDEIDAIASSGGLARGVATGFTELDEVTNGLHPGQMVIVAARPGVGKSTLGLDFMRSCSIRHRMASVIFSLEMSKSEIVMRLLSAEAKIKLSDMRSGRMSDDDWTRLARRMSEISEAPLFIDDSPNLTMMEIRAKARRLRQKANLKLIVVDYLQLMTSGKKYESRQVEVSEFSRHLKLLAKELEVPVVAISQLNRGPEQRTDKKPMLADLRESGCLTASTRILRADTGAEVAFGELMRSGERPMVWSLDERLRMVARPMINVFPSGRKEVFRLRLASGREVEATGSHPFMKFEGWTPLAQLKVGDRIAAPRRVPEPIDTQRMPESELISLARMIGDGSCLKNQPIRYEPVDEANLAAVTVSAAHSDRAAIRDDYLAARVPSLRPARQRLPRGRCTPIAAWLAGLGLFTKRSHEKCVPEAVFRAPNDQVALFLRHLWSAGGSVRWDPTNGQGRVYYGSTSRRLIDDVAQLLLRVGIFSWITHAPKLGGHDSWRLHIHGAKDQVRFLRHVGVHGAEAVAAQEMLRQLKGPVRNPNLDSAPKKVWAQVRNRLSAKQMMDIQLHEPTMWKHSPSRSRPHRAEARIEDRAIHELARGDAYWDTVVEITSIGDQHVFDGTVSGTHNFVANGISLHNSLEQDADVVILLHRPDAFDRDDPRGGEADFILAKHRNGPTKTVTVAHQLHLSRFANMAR

[15] = test system: A-375; test: MITF: Counter assay: A375 proliferation Measured in Cell-Based System Using Plate Reader - 2084-03_Inhibitor_Dose_DryPowder_Activity. [Related pubchem assays (depositor defined):AID488944]; assay type: functional; settings: Homo sapiens
[16] = test system: Escherichia coli; test: microbe, parasite or virus in culture
[17] = target: T6, Hexokinase HKDC1 (Homo sapiens, UniProt Q2TB90); test: inhibition of HKDC1 glucose phosphorylation – biochemical, W721R variant, dose response (AID 504729); assay type: functional
T6 sequence (Q2TB90 whole entry): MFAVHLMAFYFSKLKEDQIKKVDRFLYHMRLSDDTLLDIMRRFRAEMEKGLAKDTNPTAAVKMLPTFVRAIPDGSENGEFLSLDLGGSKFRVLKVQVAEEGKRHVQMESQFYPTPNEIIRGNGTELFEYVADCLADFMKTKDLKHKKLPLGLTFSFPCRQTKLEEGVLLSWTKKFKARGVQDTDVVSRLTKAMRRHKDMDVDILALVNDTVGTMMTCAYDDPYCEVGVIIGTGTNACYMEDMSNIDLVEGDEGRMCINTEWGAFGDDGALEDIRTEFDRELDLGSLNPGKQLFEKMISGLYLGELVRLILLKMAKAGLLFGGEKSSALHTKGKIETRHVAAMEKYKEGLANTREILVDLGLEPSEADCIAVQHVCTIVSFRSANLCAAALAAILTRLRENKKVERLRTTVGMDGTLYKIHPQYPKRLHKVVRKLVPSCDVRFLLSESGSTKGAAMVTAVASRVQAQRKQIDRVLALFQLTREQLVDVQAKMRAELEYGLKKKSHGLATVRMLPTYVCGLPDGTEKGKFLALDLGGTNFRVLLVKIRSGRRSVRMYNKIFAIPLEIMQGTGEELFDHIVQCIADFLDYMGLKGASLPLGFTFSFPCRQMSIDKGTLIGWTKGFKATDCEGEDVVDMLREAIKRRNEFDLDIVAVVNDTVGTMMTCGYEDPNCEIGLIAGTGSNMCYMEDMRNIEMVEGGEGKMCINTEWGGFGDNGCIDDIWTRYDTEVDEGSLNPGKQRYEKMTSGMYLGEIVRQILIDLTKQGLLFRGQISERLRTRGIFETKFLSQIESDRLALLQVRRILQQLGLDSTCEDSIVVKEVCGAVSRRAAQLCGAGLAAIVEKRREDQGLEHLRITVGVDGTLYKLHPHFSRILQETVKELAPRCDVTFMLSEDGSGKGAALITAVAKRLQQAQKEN

[18] = test system: Escherichia coli; test: microbe, parasite or virus in culture; remark: listed apart in the source

Chain of Nuclear receptor subfamily 0 group B member 1 (P51843 whole entry): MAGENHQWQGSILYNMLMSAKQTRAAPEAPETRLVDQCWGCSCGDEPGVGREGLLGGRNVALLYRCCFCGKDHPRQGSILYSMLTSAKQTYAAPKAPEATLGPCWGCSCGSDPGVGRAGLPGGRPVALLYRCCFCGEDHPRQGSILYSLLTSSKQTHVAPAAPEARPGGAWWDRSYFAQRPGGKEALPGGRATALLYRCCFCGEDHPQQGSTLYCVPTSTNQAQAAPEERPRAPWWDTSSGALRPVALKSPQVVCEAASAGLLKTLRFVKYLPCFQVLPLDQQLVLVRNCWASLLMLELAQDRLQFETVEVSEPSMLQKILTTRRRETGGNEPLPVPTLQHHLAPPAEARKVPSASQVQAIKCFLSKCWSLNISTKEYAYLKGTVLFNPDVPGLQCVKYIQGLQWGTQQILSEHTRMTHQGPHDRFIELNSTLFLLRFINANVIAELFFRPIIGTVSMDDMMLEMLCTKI

CNC(=O)c1ncnnc1N(C)C(=O)NCc1ccccc1
IC50 [1]: > 67.5 µM (inactive) | IC50 [2]: > 67.5 µM (inactive)

COc1ccc(Cn2nnc3c(O)nc(C(=O)NCCc4ccc(F)cc4)nc32)cc1OC
EC50 [3]: > 59.7 µM (inactive) | EC50 [4]: > 59.7 µM (inactive)

CCCCN=C(S)N=Nc1c(O)n(Cc2ccccc2)c2ccccc12
AC50 [5]: 0.601 µM (active) | AC50 [6]: 119 µM (active) | AC50 [7]: 61.5 µM (active)

N=c1ccn2c(n1)O[C@H]1[C@@H](CO)[C@H](O)O[C@H]12
IC50 [8]: > 80 µM (inactive) | IC50 [9]: > 80 µM (inactive)

CCOC(=O)c1c(C)oc2c1C(=O)c1ccccc1C2=O
EC50 [10]: 13.3 µM (active) | AC50 [7]: 4.44 µM (active) | AC50 [11]: 3.7 µM (active) | IC50 [12]: 16.1 µM (active) | AC50 [13]: 3.18 µM (active) | AC50 [14]: 6.31 µM (active) | AC50 [15]: 41.9 µM (active)

CCC(C)C(N)C1=NC(C(=O)N[C@@H](CC(C)C)C(=O)N[C@H](CCC(=O)[O-])C(=O)N[C@H](C(=O)N[C@H]2CCCCNC(=O)[C@H](CC(N)=O)NC(=O)[C@@H](CC(=O)[O-])NC(=O)[C@H](Cc3c[nH]cn3)NC(=O)[C@@H](Cc3ccccc3)NC(=O)[C@H]([C@@H](C)CC)NC(=O)[C@@H](CCCN)NC2=O)[C@@H](C)CC)CS1.[Zn+2] (some centres undefined) (X1-L[dE]IK[dOrn]I[dF]H[dD]N; lactam 4-C)
AC50 [16]: 184 µM (active) | IC50 [17]: 2.69 µM (active) | AC50 [18]: 38 µM (active)
